Measured values reported in ChEMBL document CHEMBL4190319, “Piperlongumine B and analogs are promising and selective inhibitors for acetylcholinesterase” (Eur J Med Chem, 2017).

Columns and labels:
[1] = Solubility of the compound in DMSO; format: physicochemical
[2] = Cytotoxicity against mouse NIH/3T3 cells assessed as cell survival at 40 uM after 96 hrs by sulforhodamine B assay relative to control; format: cell-based, NIH3T3; details: read-out: Survival
[3] = tested on: A253 cell line; assay: Cytotoxicity against human A253 cells assessed as cell survival at 40 uM after 96 hrs by sulforhodamine B assay relative to control; format: functional; details: A253, 96 h, read-out: Survival
[4] = target: T1, Acetylcholinesterase (Electrophorus electricus, UniProt O42275); assay: Competitive inhibition of electric eel AChE assessed as inhibition constant for enzyme inhibitor complex preincubated for 20 mins followed by acetylthiocholine iodide substrate addition and measured for 30 mins at 1 min intervals by Ellman's method
[5] = tested on: HT-29; assay: Cytotoxicity against human HT-29 cells assessed as cell survival at 40 uM after 96 hrs by sulforhodamine B assay relative to control; format: functional; details: HT-29, 96 h, read-out: Survival
[6] = tested on: SW-1736; assay: Cytotoxicity against human SW1736 cells assessed as cell survival at 40 uM after 96 hrs by sulforhodamine B assay relative to control; format: functional; details: SW-1736, 96 h, read-out: Survival
[7] = tested on: FaDu; assay: Cytotoxicity against human FADU cells assessed as cell survival at 40 uM after 96 hrs by sulforhodamine B assay relative to control; format: functional; details: read-out: Survival
[8] = target: T1, Acetylcholinesterase; assay: Competitive inhibition of electric eel AChE assessed as inhibition constant for enzyme-substrate-inhibitor complex preincubated for 20 mins followed by acetylthiocholine iodide substrate addition and measured for 30 mins at 1 min intervals by Ellman's method
[9] = tested on: MCF7; assay: Cytotoxicity against human MCF7 cells assessed as cell survival at 40 uM after 96 hrs by sulforhodamine B assay relative to control; format: functional; details: MCF7, 96 h, read-out: Survival
[10] = Cytotoxicity against mouse NIH/3T3 cells assessed as cell survival at 60 uM after 96 hrs by sulforhodamine B assay relative to control; format: cell-based, NIH3T3; details: read-out: Survival
[11] = tested on: FaDu; assay: Cytotoxicity against human FADU cells assessed as cell survival at 60 uM after 96 hrs by sulforhodamine B assay relative to control; format: functional; details: read-out: Survival
[12] = tested on: MCF7; assay: Cytotoxicity against human MCF7 cells assessed as cell survival at 60 uM after 96 hrs by sulforhodamine B assay relative to control; format: functional; details: MCF7, 96 h, read-out: Survival
[13] = tested on: SW-1736; assay: Cytotoxicity against human SW1736 cells assessed as cell survival at 60 uM after 96 hrs by sulforhodamine B assay relative to control; format: functional; details: SW-1736, 96 h, read-out: Survival
[14] = tested on: HT-29; assay: Cytotoxicity against human HT-29 cells assessed as cell survival at 60 uM after 96 hrs by sulforhodamine B assay relative to control; format: functional; details: HT-29, 96 h, read-out: Survival
[15] = tested on: A253 cell line; assay: Cytotoxicity against human A253 cells assessed as cell survival at 60 uM after 96 hrs by sulforhodamine B assay relative to control; format: functional; details: A253, 96 h, read-out: Survival

T1 sequence (O42275 whole entry): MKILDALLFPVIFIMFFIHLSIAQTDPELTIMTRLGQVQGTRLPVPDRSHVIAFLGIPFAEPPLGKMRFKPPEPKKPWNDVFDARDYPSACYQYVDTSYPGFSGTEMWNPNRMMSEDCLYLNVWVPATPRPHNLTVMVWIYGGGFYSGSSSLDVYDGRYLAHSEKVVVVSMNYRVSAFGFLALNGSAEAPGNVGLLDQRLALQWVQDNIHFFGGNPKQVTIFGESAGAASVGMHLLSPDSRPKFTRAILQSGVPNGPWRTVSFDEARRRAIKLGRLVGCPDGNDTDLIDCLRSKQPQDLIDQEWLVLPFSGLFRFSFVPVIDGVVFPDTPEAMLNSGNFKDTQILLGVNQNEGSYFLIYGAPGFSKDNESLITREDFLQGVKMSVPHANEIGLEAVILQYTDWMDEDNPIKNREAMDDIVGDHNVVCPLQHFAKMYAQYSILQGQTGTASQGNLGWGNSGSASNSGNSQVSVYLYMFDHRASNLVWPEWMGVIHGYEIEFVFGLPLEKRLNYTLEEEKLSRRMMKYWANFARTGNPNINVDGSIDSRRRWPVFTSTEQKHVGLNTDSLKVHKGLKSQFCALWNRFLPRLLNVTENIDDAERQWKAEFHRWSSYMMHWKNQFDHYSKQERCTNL

solubility [1] | Compound | viability at 96 h, 40 µM [2] [%] | viability at 40 µM [3] [%] | Ki [4] [µM] | viability at 40 µM [5] [%] | viability at 40 µM [6] [%] | viability at 40 µM [7] [%] | Ki [8] [µM] | viability at 40 µM [9] [%] | viability at 96 h, 60 µM [10] [%] | viability at 60 µM [11] [%] | viability at 60 µM [12] [%] | viability at 60 µM [13] [%] | viability at 60 µM [14] [%] | viability at 60 µM [15] [%]
Insoluble | CCCCCCCCCCCCCCCCC/C=C/C(=O)N1CCCC1 |  |  |  |  |  |  |  |  |  |  |  |  |  | 
 | CCCCCCCCCCCCC/C=C/C(=O)N1CCCCC1 | 80 | 57 | 7.45 | 47 | 77 | 90 | > 50 | 40 |  |  |  |  |  | 
Insoluble | CCCCCCCCCCCCCCC/C=C/C(=O)N1CCCC1 |  |  |  |  |  |  |  |  |  |  |  |  |  | 
 | CCCCCCCCCCCCC/C=C/C(=O)N1CCCCCCC1 | 50 | 40 | 2.04 | 15 | 43 | 61 | 23.3 | 27 |  |  |  |  |  | 
 | CCCCCCCCCCC/C=C/C(=O)N1CCCCCC1 |  |  | 9.99 |  |  |  | 45.4 |  | 63 | 85 | 35 | 80 | 57 | 63
 | CCCCCCCCCCC/C=C/C(=O)N1CCC1 |  |  |  |  |  |  |  |  | 80 | 95 | 59 | 89 | 84 | 77
Insoluble | CCCCCCCCCCCCCCCCC/C=C/C(=O)N1CCCCCC1 |  |  |  |  |  |  |  |  |  |  |  |  |  | 
 | CCCCCCCCCCCCC/C=C/C(=O)N1CCC1 | 92 | 69 |  | 71 | 88 | 96 |  | 62 |  |  |  |  |  | 
 | CCCCCCCCCCCCCCC/C=C/C(=O)N1CCCCCCC1 |  |  | 5.09 |  |  |  | > 50 |  | 75 | 93 | 83 | 81 | 69 | 80
Insoluble | CCCCCCCCCCCCCCCCC/C=C/C(=O)N1CCC1 |  |  |  |  |  |  |  |  |  |  |  |  |  | 
 | CCCCCCCCCCC/C=C/C(=O)N1CCCC1 |  |  |  |  |  |  |  |  | 78 | 96 | 69 | 99 | 86 | 86
 | CCCCCCCCCCCCC/C=C/C(=O)N1CCCCCC1 | 69 | 46 | 3.41 | 22 | 61 | 77 | 81.9 | 27 |  |  |  |  |  | 
 | CCCCCCCCCCC/C=C/C(=O)N1CCCCCCC1 |  |  | 6.83 |  |  |  | 23 |  | 70 | 84 | 40 | 76 | 52 | 57
Insoluble | CCCCCCCCCCCCCCC/C=C/C(=O)N1CCC1 |  |  |  |  |  |  |  |  |  |  |  |  |  | 
Insoluble | CCCCCCCCCCCCCCCCC/C=C/C(=O)N1CCCCC1 |  |  |  |  |  |  |  |  |  |  |  |  |  | 
 | CCCCCCCCCCCCC/C=C/C(=O)N1CCCC1 | 60 | 44 |  | 24 | 42 | 79 |  | 24 |  |  |  |  |  | 
 | CCCCCCCCCCCCCCC/C=C/C(=O)N1CCCCCC1 |  |  | 3.16 |  |  |  | 41.5 |  | 74 | 94 | 75 | 86 | 76 | 88
Insoluble | CCCCCCCCCCCCCCC/C=C/C(=O)N1CCCCC1 |  |  |  |  |  |  |  |  |  |  |  |  |  | 
 | CCCCCCCCCCC/C=C/C(=O)N1CCCCC1 | 74 | 67 |  | 68 | 63 | 97 |  | 51 |  |  |  |  |  | 
Insoluble | CCCCCCCCCCCCCCCCC/C=C/C(=O)N1CCCCCCC1 |  |  |  |  |  |  |  |  |  |  |  |  |  | 
